In assay [1] the target is T1, DDB1 (Homo sapiens, UniProt Q16531, DEL396-705).
T1 construct: made in house; host or cells: Spodoptera frugiperda SF9 insect cells (Bac-to-Bac)
Briefly: Microscale thermophoresis, DDB1 without CDK12/cyclin K. The assay is classed as binding. Conditions: MST, absence of CDK12/cyclin K. The method, then: Finally, the capacity of small molecules to induce a ternary complex between CDK12/cyclin K and DDB1 in vitro was assessed by microscale thermophoresis (MST). […]
The gene of human DDB1 (Uniprot: Q16531) with a beta-propeller B domain deletion (ΔBPB: a.a. 396–705 deleted) was subcloned into pFastBac1 vector with an N-terminal His8-tag and a HRV 3C cleavage site (GeneScript), and the recombinant protein was expressed in Spodoptera frugiperda SF9 insect cells in sf900™ II SFM culture medium using the Bac to Bac™ baculovirus expression system (Gibco™). […]
A protocol to assess ternary binding of molecular glues with CDK12/cycK and DDB1 by MST was established using published procedures for PROTAC interaction with bromodomains and E3 ubiquitin ligases.[38] […] After 5 min incubation at room temperature, the samples were loaded in MO-K022 standard treated capillaries (NanoTemper Technologies) and measured by a Monolith NT.115 Pico instrument (NanoTemper Technologies) at 40% MST power and 20% excitation power (auto-detect) on Pico-Red detector at 22 °C. MST traces were recorded using standard parameters: 5 s MST power off, 30 s MST power on and 5 s MST power off. […]
On the technique in general: Microscale thermophoresis detects binding through changes in fluorescence in a small temperature gradient.

Assay [2] concerns the target T2, CDK12/cyclin K + DDB1 (Homo sapiens, UniProt Q16531+Q9NYV4, DEL396-705).
T2 construct: The kinase domain of human CDK12 (Uniprot: Q9NYV4; a.a; 715–1050); GST (N, cleaved yes); made in house; host or cells: Spodoptera frugiperda SF9 insect cells (Bac-to-Bac); CDK12/cyclin K co-infected with S. cerevisiae CAK1
Nature of the assay: Microscale thermophoresis, ternary complex formation. The assay is classed as binding. Conditions: MST, labeled DDB1ΔBPB + CDK12/cyclin K. Here is the method: Finally, the capacity of small molecules to induce a ternary complex between CDK12/cyclin K and DDB1 in vitro was assessed by microscale thermophoresis (MST). Labeled DDB1ΔBPB was combined with purified CDK12/cyclin K, and fluorescence intensity was monitored with increasing compound concentrations.
Cell pellets were harvested 48 hours post infection via centrifugation and lysed in buffer A (50 mM Tris–HCl (pH 8.0), 200 mM NaCl, 10 mM imidazole, 0.5 mM tris(2-carboxyethyl) phosphine (TCEP)) supplemented with EDTA-free Pierce™ protease inhibitor tablet (Thermo Fisher Scientific). […] The concentrated protein at 2 mg mL^−1 was flash-frozen in liquid nitrogen and stored at −80 °C.
Full-length S. cerevisiae CAK1 (Uniprot: P43568) with an N-terminal His6 tag was subcloned into pFastBac 1 vector. […] The eluted CDK12/cyclin K complex was concentrated to 2 mg mL^−1, flash-frozen in liquid nitrogen and stored at −80 °C.
A protocol to assess ternary binding of molecular glues with CDK12/cycK and DDB1 by MST was established using published procedures for PROTAC interaction with bromodomains and E3 ubiquitin ligases.[38] His8-DDB1-ΔBPB was labeled with the MO-L018 Monolith™ His-tag Labeling Kit RED-tris-NTA 2nd Generation (NanoTemper Technologies) following the instruction manual. 100 nM dye was mixed with 200 nM DDB1 in 50 mM HEPES pH 7.5, 150 mM NaCl, 5% glycerol, 0.05% Tween, and incubated at room temperature for 30 min. […] MST traces were recorded using standard parameters: 5 s MST power off, 30 s MST power on and 5 s MST power off. Measurements were taken at −1 to 0 s (cold region) and 9–10 s (hot region). Data were analyzed using a fitting function derived from the law of mass action:1 [drawing 6] where f(c) is the fluorescence signal (Fnorm) at a given ligand concentration (c), B is Fnorm of fully liganded DDB1 at high ligand concentrations, U is Fnorm of DDB1 alone at low ligand concentrations, Kd is the dissociation constant or binding affinity, cT is the final concentration of DDB1 in the assay (Fig. 3G). For normalization, the data were first transformed using eqn (2) where y is the fraction bound, followed by fitting to eqn (3) (Fig. 5B–E).2 [drawing 7] 3 [drawing 8]

SMILES strings stand for the structures.

T1 sequence (Q16531 with tags, fused parts or gaps DEL396-705): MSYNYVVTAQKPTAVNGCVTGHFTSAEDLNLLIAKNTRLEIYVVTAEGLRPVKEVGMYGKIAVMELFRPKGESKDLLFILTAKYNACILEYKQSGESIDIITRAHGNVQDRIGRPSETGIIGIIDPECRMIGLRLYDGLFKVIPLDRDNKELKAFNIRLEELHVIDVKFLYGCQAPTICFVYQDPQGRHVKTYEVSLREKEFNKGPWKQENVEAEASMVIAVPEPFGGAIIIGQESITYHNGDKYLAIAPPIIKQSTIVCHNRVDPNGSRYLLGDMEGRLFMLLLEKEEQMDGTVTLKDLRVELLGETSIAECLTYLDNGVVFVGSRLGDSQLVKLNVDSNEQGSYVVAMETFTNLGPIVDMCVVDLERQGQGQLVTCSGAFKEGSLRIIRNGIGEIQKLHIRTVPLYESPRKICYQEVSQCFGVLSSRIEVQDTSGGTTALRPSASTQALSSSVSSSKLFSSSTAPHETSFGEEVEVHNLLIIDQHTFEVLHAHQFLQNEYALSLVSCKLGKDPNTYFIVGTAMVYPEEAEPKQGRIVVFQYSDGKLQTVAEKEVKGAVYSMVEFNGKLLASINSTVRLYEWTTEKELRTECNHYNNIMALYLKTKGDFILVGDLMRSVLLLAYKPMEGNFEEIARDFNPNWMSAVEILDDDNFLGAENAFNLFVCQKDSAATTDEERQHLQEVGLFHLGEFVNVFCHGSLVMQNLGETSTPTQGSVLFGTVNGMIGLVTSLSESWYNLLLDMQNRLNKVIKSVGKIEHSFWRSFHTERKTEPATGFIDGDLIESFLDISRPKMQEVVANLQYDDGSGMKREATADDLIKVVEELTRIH
T2 sequence (Q16531 with tags, fused parts or gaps DEL396-705): as above
T2 sequence (Q9NYV4 715-1050, stated change not applied): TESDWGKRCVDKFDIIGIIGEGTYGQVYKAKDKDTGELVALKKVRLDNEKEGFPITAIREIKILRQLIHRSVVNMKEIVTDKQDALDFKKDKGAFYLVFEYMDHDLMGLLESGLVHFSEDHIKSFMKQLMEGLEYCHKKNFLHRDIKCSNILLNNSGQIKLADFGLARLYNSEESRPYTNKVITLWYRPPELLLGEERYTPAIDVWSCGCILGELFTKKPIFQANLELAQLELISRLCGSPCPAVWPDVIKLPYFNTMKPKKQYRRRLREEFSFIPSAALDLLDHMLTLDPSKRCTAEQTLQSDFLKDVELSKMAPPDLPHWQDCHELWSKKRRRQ
T2 sequence (O75909 11-267 partner limits assumed): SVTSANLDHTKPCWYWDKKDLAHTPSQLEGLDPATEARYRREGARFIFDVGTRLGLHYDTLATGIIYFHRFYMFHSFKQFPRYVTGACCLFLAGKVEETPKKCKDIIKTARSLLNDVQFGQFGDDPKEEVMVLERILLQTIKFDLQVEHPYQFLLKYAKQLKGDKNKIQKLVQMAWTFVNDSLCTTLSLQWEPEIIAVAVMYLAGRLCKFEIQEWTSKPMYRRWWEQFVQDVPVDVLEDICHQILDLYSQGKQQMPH

As for `Cn1cc(-n2cnc3c(NCc4nc5cc(Cl)c(Cl)cc5[nH]4)nc(N4CCOCC4)nc32)cn1` [SR-4835], in assay [1], the “binding to DDB1” value is given as “did not show binding potential for DDB1”. Take `CN(C)C/C=C/C(=O)Nc1ccc(C(=O)N2CCC[C@@H](Nc3ncc(Cl)c(-c4c[nH]c5ccccc45)n3)C2)cc1` [THZ531, reference compound]: the “ability to induce ternary complex” value in assay [2] is listed as “inability to induce such a complex”.

The values are drawn from PMC11494886, “Discovery and design of molecular glue enhancers of CDK12–DDB1 interactions for targeted degradation of cyclin K” (RSC Chemical Biology, 2024).
